Values of other authors, collected in patent US8535946B2, “Biomarker to measure drug efficacy in enteropathic disease” (The Board of Trustees of the Leland Stanford Junior …, priority 2007, dated 2013).

Conditions: humans

Cc1ncc2n1-c1ccc(Cl)cc1C(c1ccccc1F)=NC2 [midazolam]
dose excreted unchanged in the urine: less than 1%
